Assay results: PubChem BioAssay (NCI)
Values joined by “and” are separate entries in the source; they are usually repeats but may differ in a detail not shown here. Identical values can stand only once.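 Step 1: Grow cells in 96-well plates. Step 2: Expose to compound for 48 hours at 5 concentrations. Step 3: Interpolate endpoints linearly; if unreached, use highest concentration. GI50 marks 50% less growth. At the TGI there is no net growth.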

Assays:
Assay in all cases: inhibition of tumour cell growth, NCI panel, 48 h
EKVX NSCLC = test system: EKVX NSCLC
HCT-116 colon = test system: HCT-116 colon
OVCAR-5 ovarian = test system: OVCAR-5 ovarian
HOP-62 NSCLC = test system: HOP-62 NSCLC
SK-OV-3 ovarian = test system: SK-OV-3 ovarian
OVCAR-4 ovarian = test system: OVCAR-4 ovarian
SNB-75 CNS = test system: SNB-75 CNS
MOLT-4 leukemia = test system: MOLT-4 leukemia
NCI-H226 lung = test system: NCI-H226 lung
SF-539 CNS = test system: SF-539 CNS

Structure (SMILES): [Cu].c1ccc2c(c1)C1=NC2=NC2=NC(=NC3=NC(=NC4=NC(=N1)c1ccccc14)c1ccccc13)c1ccccc12
- GI50 (EKVX NSCLC): > 100 µM
- TGI (EKVX NSCLC): > 100 µM
- GI50 (HCT-116 colon): > 100 µM
- TGI (HCT-116 colon): > 100 µM
- GI50 (OVCAR-5 ovarian): > 100 µM
- TGI (OVCAR-5 ovarian): > 100 µM
- GI50 (HOP-62 NSCLC): > 100 µM
- TGI (HOP-62 NSCLC): > 100 µM
- GI50 (SK-OV-3 ovarian): > 100 µM
- TGI (SK-OV-3 ovarian): > 100 µM
- GI50 (OVCAR-4 ovarian): > 100 µM
- TGI (OVCAR-4 ovarian): > 100 µM
- GI50 (SNB-75 CNS): > 100 µM
- TGI (SNB-75 CNS): > 100 µM

Structure (SMILES): Cc1cc(C)c2c(c1)CSCc1cc(C)cc(C)c1-2
- TGI (MOLT-4 leukemia): 41.4 µM
- TGI (EKVX NSCLC): 81.9 µM
- TGI (HCT-116 colon): 60.5 µM
- TGI (NCI-H226 lung): > 100 µM
- TGI (OVCAR-5 ovarian): > 100 µM
- TGI (HOP-62 NSCLC): 69.8 µM
- TGI (SK-OV-3 ovarian): > 100 µM
- TGI (OVCAR-4 ovarian): > 100 µM
- TGI (SNB-75 CNS): > 100 µM

Structure (SMILES): Cc1cc2c(cc1Cl)SC(=Nc1ccc(Cl)cc1)N(S(=O)(=O)c1ccc(Br)s1)S2(=O)=O
- GI50 (EKVX NSCLC): 16.8 µM
- TGI (EKVX NSCLC): 36.3 µM
- GI50 (SF-539 CNS): 2.01 µM
- TGI (SF-539 CNS): 9.93 µM
- GI50 (HCT-116 colon): 14.7 µM
- TGI (HCT-116 colon): 27.8 µM
- GI50 (NCI-H226 lung): 14 µM
- TGI (NCI-H226 lung): 47.1 µM
- GI50 (OVCAR-5 ovarian): 15.7 µM
- TGI (OVCAR-5 ovarian): 34.1 µM
- GI50 (HOP-62 NSCLC): 17.8 µM
- TGI (HOP-62 NSCLC): 37.4 µM
- GI50 (SK-OV-3 ovarian): 34.5 µM
- TGI (SK-OV-3 ovarian): 97.1 µM
- GI50 (OVCAR-4 ovarian): 18.4 µM
- TGI (OVCAR-4 ovarian): 66.3 µM

Structure (SMILES): O=C1/C(=C/c2cc(O)c(O)c(O)c2)Oc2cc(O)cc(OC3OC(CO)C(O)C(O)C3O)c21 (stereo not drawn)
- TGI (MOLT-4 leukemia): 43.4 µM
- TGI (EKVX NSCLC): > 100 µM
- TGI (SF-539 CNS): > 100 µM
- TGI (HCT-116 colon): 31.1 µM
- TGI (SK-OV-3 ovarian): > 100 µM
- TGI (OVCAR-4 ovarian): 6.49 µM
- TGI (SNB-75 CNS): > 100 µM

Structure (SMILES): CC(C)(Sc1cc(C(C)(C)C)c(O)c(C(C)(C)C)c1)Sc1cc(C(C)(C)C)c(O)c(C(C)(C)C)c1
- TGI (EKVX NSCLC): > 100 µM
- TGI (SF-539 CNS): > 100 µM
- TGI (HCT-116 colon): > 100 µM
- TGI (OVCAR-5 ovarian): > 100 µM
- TGI (HOP-62 NSCLC): > 100 µM
- TGI (SK-OV-3 ovarian): > 100 µM
- TGI (OVCAR-4 ovarian): > 100 µM
- TGI (SNB-75 CNS): > 100 µM

Structure (SMILES): O=c1oc2ccccc2cc1P(=O)(O)O
- TGI (MOLT-4 leukemia): > 100 µM
- TGI (EKVX NSCLC): > 100 µM
- TGI (SF-539 CNS): > 100 µM
- TGI (HCT-116 colon): > 100 µM
- TGI (NCI-H226 lung): > 100 µM
- TGI (OVCAR-5 ovarian): > 100 µM
- TGI (HOP-62 NSCLC): > 100 µM
- TGI (OVCAR-4 ovarian): > 100 µM
- TGI (SNB-75 CNS): > 100 µM

Structure (SMILES): OC(c1ccccc1)c1c(-c2ccccc2)[nH]c(-c2ccccc2)c1C(O)c1ccccc1 (stereo not drawn)
- TGI (MOLT-4 leukemia): 7 µM
- TGI (EKVX NSCLC): 13.9 µM
- TGI (SF-539 CNS): 6.94 µM
- TGI (HCT-116 colon): 8.83 µM
- TGI (NCI-H226 lung): 7.32 µM
- TGI (OVCAR-5 ovarian): 10.8 µM
- TGI (HOP-62 NSCLC): 17.5 µM
- TGI (SK-OV-3 ovarian): 47.2 µM
- TGI (OVCAR-4 ovarian): 4.82 µM

Structure (SMILES): CC1COS(=O)N1c1ccccc1 (stereo not drawn)
- TGI (MOLT-4 leukemia): > 100 µM
- TGI (EKVX NSCLC): > 100 µM
- TGI (NCI-H226 lung): > 100 µM
- TGI (OVCAR-5 ovarian): > 100 µM
- TGI (HOP-62 NSCLC): > 100 µM
- TGI (SK-OV-3 ovarian): > 100 µM
- TGI (OVCAR-4 ovarian): > 100 µM
- TGI (SNB-75 CNS): > 100 µM

Structure (SMILES): CSC(=Nc1ccc([N+](=O)[O-])cc1C#N)NC(=O)c1ccccc1
- TGI (MOLT-4 leukemia): > 100 µM
- TGI (EKVX NSCLC): > 100 µM
- TGI (SF-539 CNS): > 100 µM
- TGI (HCT-116 colon): > 100 µM
- TGI (NCI-H226 lung): > 100 µM
- TGI (OVCAR-5 ovarian): > 100 µM
- TGI (HOP-62 NSCLC): > 100 µM
- TGI (OVCAR-4 ovarian): > 100 µM
- TGI (SNB-75 CNS): > 100 µM

Structure (SMILES): O=c1cc(-c2cccc(Cl)c2)[nH]c2cc3c(cc12)OCO3
- GI50 (MOLT-4 leukemia): 0.654 µM
- TGI (MOLT-4 leukemia): 75 µM and > 100 µM
- GI50 (SF-539 CNS): 0.288 µM
- TGI (SF-539 CNS): 1.08 µM and 1.56 µM
- TGI (OVCAR-5 ovarian): > 100 µM
- TGI (HOP-62 NSCLC): 2.85 µM
- TGI (SK-OV-3 ovarian): 3.05 µM
- GI50 (OVCAR-4 ovarian): 43 µM
- TGI (OVCAR-4 ovarian): > 100 µM
- TGI (SNB-75 CNS): 0.712 µM

Structure (SMILES): CC(C)N1CCOC(c2ccc(O)c(O)c2)C1 (stereo not drawn)
- TGI (MOLT-4 leukemia): > 100 µM
- TGI (EKVX NSCLC): > 100 µM
- TGI (OVCAR-5 ovarian): > 100 µM
- TGI (HOP-62 NSCLC): > 100 µM
- TGI (SK-OV-3 ovarian): > 100 µM
- TGI (OVCAR-4 ovarian): > 100 µM
- TGI (SNB-75 CNS): > 100 µM

Structure (SMILES): O=C(O)c1c2c(c(O)c3c1CN(C1CCCCC1)CO3)OCN(C1CCCCC1)C2
- TGI (MOLT-4 leukemia): 40.1 µM
- TGI (EKVX NSCLC): > 100 µM
- TGI (SF-539 CNS): > 100 µM
- TGI (HCT-116 colon): > 100 µM
- TGI (OVCAR-5 ovarian): > 100 µM
- TGI (HOP-62 NSCLC): > 100 µM
- TGI (SK-OV-3 ovarian): > 100 µM
- TGI (OVCAR-4 ovarian): > 100 µM
- TGI (SNB-75 CNS): > 100 µM

Structure (SMILES): O=C1c2ccccc2C(=O)N1C/C=N/NS(=O)(=O)c1cccc([N+](=O)[O-])c1
- TGI (MOLT-4 leukemia): > 100 µM
- TGI (EKVX NSCLC): > 100 µM
- TGI (SF-539 CNS): > 100 µM
- TGI (HCT-116 colon): > 100 µM
- TGI (HOP-62 NSCLC): > 100 µM
- TGI (OVCAR-4 ovarian): > 100 µM
- TGI (SNB-75 CNS): > 100 µM

Structure (SMILES): CCCCCCCCCCCC(c1ccccc1)[N+](C)(C)C (stereo not drawn)
- GI50 (MOLT-4 leukemia): 1.36 µM
- TGI (MOLT-4 leukemia): 4.02 µM
- GI50 (EKVX NSCLC): 1.45 µM
- TGI (EKVX NSCLC): 4.63 µM
- GI50 (NCI-H226 lung): 1.97 µM
- TGI (NCI-H226 lung): 7.22 µM
- GI50 (OVCAR-5 ovarian): 0.998 µM
- TGI (OVCAR-5 ovarian): 4.97 µM
- GI50 (HOP-62 NSCLC): 1.52 µM
- TGI (HOP-62 NSCLC): 3.07 µM
- GI50 (SK-OV-3 ovarian): 1.86 µM
- TGI (SK-OV-3 ovarian): 6.09 µM
- GI50 (OVCAR-4 ovarian): 1.13 µM
- TGI (OVCAR-4 ovarian): 4.05 µM
- GI50 (SNB-75 CNS): 1.15 µM
- TGI (SNB-75 CNS): 2.55 µM

Structure (SMILES): O=S1(=O)[C@H](c2ccccc2)c2c(-c3ccccc3)sc(-c3ccccc3)c2[C@@H]1c1ccccc1
- TGI (MOLT-4 leukemia): > 100 µM
- TGI (EKVX NSCLC): > 100 µM
- TGI (SF-539 CNS): > 100 µM
- TGI (OVCAR-5 ovarian): > 100 µM
- TGI (HOP-62 NSCLC): > 100 µM
- TGI (SK-OV-3 ovarian): > 100 µM
- TGI (OVCAR-4 ovarian): > 100 µM
- TGI (SNB-75 CNS): > 100 µM

Structure (SMILES): C=CCn1c(SCC(=O)Nc2ccc(C(=O)/C=C/c3cc(OC)c(OC)c(OC)c3)cc2)nnc1-c1cc(OC)c(OC)c(OC)c1
- GI50 (MOLT-4 leukemia): 4.22 µM
- TGI (MOLT-4 leukemia): > 100 µM
- GI50 (EKVX NSCLC): 4.03 µM
- TGI (EKVX NSCLC): 33.8 µM
- GI50 (SF-539 CNS): 2.52 µM
- TGI (SF-539 CNS): 8.83 µM
- GI50 (HCT-116 colon): 2.09 µM
- TGI (HCT-116 colon): 5.12 µM
- GI50 (OVCAR-5 ovarian): 3.97 µM
- TGI (OVCAR-5 ovarian): 28.1 µM
- GI50 (HOP-62 NSCLC): 5.17 µM
- TGI (HOP-62 NSCLC): 37.9 µM
- GI50 (SK-OV-3 ovarian): 5.08 µM
- TGI (SK-OV-3 ovarian): 21.2 µM
- GI50 (OVCAR-4 ovarian): 5.67 µM
- TGI (OVCAR-4 ovarian): 38.6 µM
- GI50 (SNB-75 CNS): 2.71 µM
- TGI (SNB-75 CNS): 27.6 µM

Structure (SMILES): CCN(CC)C(=O)c1cccc2c(OC)ccc(OC)c12
- TGI (MOLT-4 leukemia): > 100 µM
- TGI (EKVX NSCLC): > 100 µM
- TGI (HCT-116 colon): > 100 µM
- TGI (NCI-H226 lung): > 100 µM
- TGI (OVCAR-5 ovarian): > 100 µM
- TGI (HOP-62 NSCLC): > 100 µM
- TGI (SK-OV-3 ovarian): > 100 µM
- TGI (OVCAR-4 ovarian): > 100 µM
- TGI (SNB-75 CNS): > 100 µM
